# Target: T1, ALK (Homo sapiens, UniProt Q9UM73)
# T1 construct: purchased Millipore
# Assay: ALK kinase assay (HTRF), apparent Ki
# Assay type: biochemical
# Conditions: apparent Ki from IC50 by Cheng-Prusoff; ALK (Millipore), 50 μM ATP; read-out: HTRF_ALK Human-Ki
# Method: The following procedure is used to determine ALK Activity.
# ALK kinase assays were conducted with the indicated final concentrations unless otherwise specified. In 384 well black plates (Axygen), 8 μl of compound (2% DMSO) was incubated with 8 μl Lck-peptide substrate (0.5 μM, biotin-Ahx-GAEEEIYAAFFA-COOH) and 8 μl of a mixture of ALK (3 nM, Millipore) and ATP (50 μM) in reaction buffer (50 mM Hepes, pH 7.4; 10 mM MgCl2; 2 mM MnCl2; 0.1 mM sodium orthovanadate; 0.01% BSA and 1 mM DTT (added fresh before assay) for 1 h at room temperature. Reactions were then quenched by the addition of 30 μl quench solution (streptavidin-allophycocyanin and Europium-cryptate PT66 monoclonal antibody in 40 mM Hepes, pH 7.4; 480 mM KF; 66 mM EDTA; 0.01% Tween-20; and 0.1% BSA) at room temperature. Plates were read 1 h after quenching on an Envision Multilaber Reader and IC50 values were calculated using a sigmoidal fit of the concentration/inhibition response curves. These values were converted to apparent Ki values using the Cheng-Prusoff relationship.
# Alternatively, 4 nM ALK (Millipore) and 50 μM ATP were pre-incubated for 30 min at room temperate in 384 well plates (Corning 3676) in 2.5× reaction buffer (125 nM SEB from Cisbio Bioassays, 12.5 mM MgCl2, 5 mM MnCl2, and 2.5 mM DTT). Reactions were initiated by the addition of 4 μl ALK-ATP mixture to 2 μl compounds (2% DMSO) and 4 μl TK-substrate biotin (Cisbio Bioassays). After incubation for 1 h at room temperature, reactions were quenched in 10 μl stop buffer (Cisbio detection buffer containing Streptavididn-XL665 and Eu-Cryptate PT66 monoclonal antibody). Plates were read 1 h after quenching on an Envision Multilaber Reader and IC50 values were calculated using a sigmoidal fit of the concentration/inhibition response curves. These values were converted to apparent Ki values using the Cheng-Prusoff relationship. Results are shown in Table 1 A correlates to an Ki=<100 nM, B correlates to an Ki between 100 nM and 1 μM, C correlates to an Ki=>1 μM.
# T1 sequence (Q9UM73 19-1620): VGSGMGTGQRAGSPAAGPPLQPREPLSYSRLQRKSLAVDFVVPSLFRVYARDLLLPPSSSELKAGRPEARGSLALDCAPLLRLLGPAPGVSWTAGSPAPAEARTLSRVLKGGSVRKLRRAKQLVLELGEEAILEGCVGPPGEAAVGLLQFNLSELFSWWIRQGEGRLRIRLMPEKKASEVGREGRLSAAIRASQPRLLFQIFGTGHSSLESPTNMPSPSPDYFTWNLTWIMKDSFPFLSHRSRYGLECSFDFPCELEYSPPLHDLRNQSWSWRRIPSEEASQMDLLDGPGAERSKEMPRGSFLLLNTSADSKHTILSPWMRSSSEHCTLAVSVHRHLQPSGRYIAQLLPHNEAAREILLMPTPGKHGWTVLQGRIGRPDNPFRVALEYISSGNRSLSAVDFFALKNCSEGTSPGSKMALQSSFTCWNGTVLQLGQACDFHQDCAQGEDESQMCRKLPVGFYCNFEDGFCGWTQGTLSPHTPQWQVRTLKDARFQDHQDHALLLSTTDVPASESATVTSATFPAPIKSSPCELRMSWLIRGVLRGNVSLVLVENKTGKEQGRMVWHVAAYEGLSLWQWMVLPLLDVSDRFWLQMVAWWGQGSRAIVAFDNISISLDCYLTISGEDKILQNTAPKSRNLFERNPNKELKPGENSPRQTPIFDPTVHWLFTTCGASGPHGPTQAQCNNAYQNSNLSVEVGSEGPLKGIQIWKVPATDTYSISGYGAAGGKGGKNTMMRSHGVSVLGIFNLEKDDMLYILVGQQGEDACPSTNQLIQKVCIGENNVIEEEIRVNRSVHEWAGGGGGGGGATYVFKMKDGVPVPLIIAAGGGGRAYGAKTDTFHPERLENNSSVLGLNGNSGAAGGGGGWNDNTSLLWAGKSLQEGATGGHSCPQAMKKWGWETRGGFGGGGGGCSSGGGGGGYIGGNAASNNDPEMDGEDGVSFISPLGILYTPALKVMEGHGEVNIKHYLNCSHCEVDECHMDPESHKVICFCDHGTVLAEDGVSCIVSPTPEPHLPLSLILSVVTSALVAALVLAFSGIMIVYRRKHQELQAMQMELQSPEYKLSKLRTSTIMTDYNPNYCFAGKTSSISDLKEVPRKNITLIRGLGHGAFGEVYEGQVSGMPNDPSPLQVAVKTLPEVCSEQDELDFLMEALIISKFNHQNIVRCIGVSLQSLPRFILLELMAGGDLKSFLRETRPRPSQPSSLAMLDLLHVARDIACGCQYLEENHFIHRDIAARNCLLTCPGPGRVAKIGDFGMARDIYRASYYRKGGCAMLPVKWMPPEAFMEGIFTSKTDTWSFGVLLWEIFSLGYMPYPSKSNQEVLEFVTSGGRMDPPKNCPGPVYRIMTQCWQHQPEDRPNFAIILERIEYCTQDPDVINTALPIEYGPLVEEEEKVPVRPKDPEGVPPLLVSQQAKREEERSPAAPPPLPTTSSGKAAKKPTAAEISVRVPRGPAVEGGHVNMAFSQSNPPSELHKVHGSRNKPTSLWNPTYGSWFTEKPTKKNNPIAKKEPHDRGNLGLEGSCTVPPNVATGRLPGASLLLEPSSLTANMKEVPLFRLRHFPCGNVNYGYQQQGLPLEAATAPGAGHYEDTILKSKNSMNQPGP
row,Structure (SMILES),Ki
1,"CN1CCN(c2ccc(Nc3cc(C(C)(C)c4cccc(F)c4)cnc3C(N)=O)cc2)CC1 [Example 35, 5-[2-(3-fluorophenyl)propan-2-yl]-3-{[4-(4-methylpiperazin-1-yl)phenyl]amino}pyridine-2-carboxamide]",100 to 1000 nM
2,"CC(c1cccc(F)c1)c1cnc(C(N)=O)c(Nc2ccc(N3CCN(C)CC3)c(Cl)c2)c1 (stereo not shown) [Example 36, 3-{[3-chloro-4-(4-methylpiperazin-1-yl)phenyl]amino}-5-[1-(3-fluorophenyl)ethyl]pyridine-2-carboxamide]",100 to 1000 nM
3,"COc1cc(N2CCN(C)CC2)ccc1Nc1cc(C(C)c2cccc(F)c2)cnc1C(N)=O (stereo not shown) [Example 37, 5-[1-(3-fluorophenyl)ethyl]-3-{[2-methoxy-4-(4-methylpiperazin-1-yl)phenyl]amino}pyridine-2-carboxamide]",100 to 1000 nM
4,"COc1cc(N2CCN(C)CC2)ccc1Nc1cc(Cc2c(Cl)cccc2Cl)cnc1C(N)=O [Example 38, 5-(2,6-dichlorobenzyl)-3-{[2-methoxy-4-(4-methylpiperazin-1-yl)phenyl]amino}pyridine-2-carboxamide]",< 100 nM
5,"NC(=O)c1ncc(Cc2c(Cl)cccc2Cl)cc1Nc1ccc(N2CCNCC2)cc1 [Example 39, 5-(2,6-dichlorobenzyl)-3-{[4-(piperazin-1-yl)phenyl]amino}pyridine-2-carboxamide]",< 100 nM
6,"CN1CCN(c2ccc(Nc3cc(Cc4cc(F)ccc4Cl)cnc3C(N)=O)cc2Cl)CC1 [Example 40, 5-(2-chloro-5-fluorobenzyl)-3-{[3-chloro-4-(4-methylpiperazin-1-yl)phenyl]amino}pyridine-2-carboxamide]",100 to 1000 nM
7,"COc1cc(N2CCNCC2)ccc1Nc1cc(Cc2cc(F)ccc2Cl)cnc1C(N)=O [Example 41, 5-(2-chloro-5-fluorobenzyl)-3-{[2-methoxy-4-(piperazin-1-yl)phenyl]amino}pyridine-2-carboxamide]",< 100 nM
8,"COc1cc(N2CCNCC2)ccc1Nc1cc(Cc2c(F)cccc2Cl)cnc1C(N)=O [Example 42, 5-(2-chloro-6-fluorobenzyl)-3-{[2-methoxy-4-(piperazin-1-yl)phenyl]amino}pyridine-2-carboxamide]",< 100 nM
9,"COc1cc(N2CCN(CCN3CCOCC3)CC2)ccc1Nc1cc(Cc2c(F)cccc2Cl)cnc1C(N)=O [Example 43, 5-(2-chloro-6-fluorobenzyl)-3-[(2-methoxy-4-{4-[2-(morpholin-4-yl)ethyl]piperazin-1-yl}phenyl)amino]pyridine-2-carboxamide]",100 to 1000 nM
10,"CCN(CC)CCN1CCN(c2ccc(Nc3cc(Cc4c(F)cccc4Cl)cnc3C(N)=O)c(OC)c2)CC1 [Example 44, 5-(2-chloro-6-fluorobenzyl)-3-[(4-{4-[2-(diethylamino)ethyl]piperazin-1-yl}-2-methoxyphenyl)amino]pyridine-2-carboxamide]",< 100 nM
11,"COc1cc(N2CCN(CC(C)(C)O)CC2)ccc1Nc1cc(Cc2c(F)cccc2Cl)cnc1C(N)=O [Example 45, 5-(2-chloro-6-fluorobenzyl)-3-({4-[4-(2-hydroxy-2-methylpropyl)piperazin-1-yl]-2-methoxyphenyl}amino)pyridine-2-carboxamide]",100 to 1000 nM
12,"COc1cc(N2CCN(C)CC2)ccc1Nc1cc(Cc2c(F)cccc2Cl)cnc1C(N)=O [Example 46, 5-(2-chloro-6-fluorobenzyl)-3-{[2-methoxy-4-(4-methylpiperazin-1-yl)phenyl]amino}pyridine-2-carboxamide]",100 to 1000 nM
13,"CCN1CCN(c2ccc(Nc3cc(Cc4c(F)cccc4Cl)cnc3C(N)=O)c(OC)c2)CC1 [Example 47, 5-(2-chloro-6-fluorobenzyl)-3-{[4-(4-ethylpiperazin-1-yl)-2-methoxyphenyl]amino}pyridine-2-carboxamide]",< 100 nM
14,"COc1cc(N2CCNCC2)ccc1Nc1cc(Cc2c(F)ccc(F)c2Cl)cnc1C(N)=O [Example 48, 5-(2-chloro-3,6-difluorobenzyl)-3-{[2-methoxy-4-(piperazin-1-yl)phenyl]amino}pyridine-2-carboxamide]",100 to 1000 nM
15,"Cc1ccccc1-c1cnc(C(N)=O)c(Nc2ccc(N3CCN(C)CC3)cc2)c1 [Example 49, 5-(2-methylphenyl)-3-{[4-(4-methylpiperazin-1-yl)phenyl]amino}pyridine-2-carboxamide]",100 to 1000 nM
16,"CN1CCN(c2ccc(Nc3cc(-c4ccccc4F)cnc3C(N)=O)cc2)CC1 [Example 50, 5-(2-fluorophenyl)-3-{[4-(4-methylpiperazin-1-yl)phenyl]amino}pyridine-2-carboxamide]",100 to 1000 nM

row,Structure (SMILES),Ki
1,"CN1CCN(c2ccc(Nc3cc(-c4cccc(F)c4)cnc3C(N)=O)cc2)CC1 [Example 51, 5-(3-fluorophenyl)-3-{[4-(4-methylpiperazin-1-yl)phenyl]amino}pyridine-2-carboxamide]",> 1000 nM
2,"CN1CCN(c2ccc(Nc3cc(-c4cccc(Cl)c4)cnc3C(N)=O)cc2)CC1 [Example 52, 5-(3-chlorophenyl)-3-{[4-(4-methylpiperazin-1-yl)phenyl]amino}pyridine-2-carboxamide]",> 1000 nM
3,"CN1CCN(c2ccc(Nc3cc(-c4cccc(C(N)=O)c4)cnc3C(N)=O)cc2)CC1 [Example 53, 5-(3-carbamoylphenyl)-3-{[4-(4-methylpiperazin-1-yl)phenyl]amino}pyridine-2-carboxamide]",100 to 1000 nM
4,"CN1CCN(c2ccc(Nc3cc(-c4cccc(NS(C)(=O)=O)c4)cnc3C(N)=O)cc2)CC1 [Example 54, 3-{[4-(4-methylpiperazin-1-yl)phenyl]amino}-5-{3-[(methylsulfonyl)amino]phenyl}pyridine-2-carboxamide]",< 100 nM
5,"CN1CCN(c2ccc(Nc3cc(-c4ccccc4NS(C)(=O)=O)cnc3C(N)=O)cc2)CC1 [Example 55, 3-{[4-(4-methylpiperazin-1-yl)phenyl]amino}-5-{2-[(methylsulfonyl)amino]phenyl}pyridine-2-carboxamide]",100 to 1000 nM
6,"CN1CCN(c2ccc(Nc3cc(/C=C/c4ccccc4)cnc3C(N)=O)cc2)CC1 [Example 56, 3-{[4-(4-methylpiperazin-1-yl)phenyl]amino}-5-[(E)-2-phenylvinyl]pyridine-2-carboxamide]",> 1000 nM
7,"COc1cc(N2CCN(C)CC2)ccc1Nc1cc(-c2cccc(NS(C)(=O)=O)c2)cnc1C(N)=O [Example 57, 3-{[2-methoxy-4-(4-methylpiperazin-1-yl)phenyl]amino}-5-{3-[(methylsulfonyl)amino]phenyl}pyridine-2-carboxamide]",100 to 1000 nM
8,"CN1CCN(c2ccc(Nc3cc(-c4ccccc4Cl)cnc3C(N)=O)cc2)CC1 [Example 58, 5-(2-chlorophenyl)-3-{[4-(4-methylpiperazin-1-yl)phenyl]amino}pyridine-2-carboxamide]",100 to 1000 nM
9,"CN1CCN(c2ccc(Nc3cc(-c4cccc(C#N)c4)cnc3C(N)=O)cc2)CC1 [Example 59, 5-(3-cyanophenyl)-3-{[4-(4-methylpiperazin-1-yl)phenyl]amino}pyridine-2-carboxamide]",> 1000 nM
10,"CN1CCN(c2ccc(Nc3cc(-c4cccnc4)cnc3C(N)=O)cc2)CC1 [Example 60, 5-{[4-(4-methylpiperazin-1-yl)phenyl]amino}-3,3′-bipyridine-6-carboxamide]",> 1000 nM
11,"CN1CCN(c2ccc(Nc3cc(-c4ccccc4C#N)cnc3C(N)=O)cc2)CC1 [Example 61, 5-(2-cyanophenyl)-3-{[4-(4-methylpiperazin-1-yl)phenyl]amino}pyridine-2-carboxamide]",> 1000 nM
12,"CN1CCN(c2ccc(Nc3cc(-c4cccc(C(=O)N(C)C)c4)cnc3C(N)=O)cc2)CC1 [Example 62, 5-[3-(dimethylcarbamoyl)phenyl]-3-{[4-(4-methylpiperazin-1-yl)phenyl]amino}pyridine-2-carboxamide]",100 to 1000 nM
13,"CN1CCN(c2ccc(Nc3cc(-c4cn[nH]c4)cnc3C(N)=O)cc2)CC1 [Example 63, 3-{[4-(4-methylpiperazin-1-yl)phenyl]amino}-5-(1H-pyrazol-4-yl)pyridine-2-carboxamide]",> 1000 nM
14,"CN1CCN(c2ccc(Nc3cc(-c4cnn(C)c4)cnc3C(N)=O)cc2)CC1 [Example 64, 3-{[4-(4-methylpiperazin-1-yl)phenyl]amino}-5-(1-methyl-1H-pyrazol-4-yl)pyridine-2-carboxamide]",> 1000 nM
15,"CN1CCN(c2ccc(Nc3cc(-c4cccc(NS(=O)(=O)CC(F)(F)F)c4)cnc3C(N)=O)cc2)CC1 [Example 65, 3-{[4-(4-methylpiperazin-1-yl)phenyl]amino}-5-(3-{[(2,2,2-trifluoroethyl)sulfonyl]amino}phenyl)pyridine-2-carboxamide]",100 to 1000 nM
